Molecular target: T1, CMKLR1 (Homo sapiens, UniProt Q99788)
T1 construct: expressed in transfected cells; host or cells: CHO-K1 cells expressing Gα-16 (CHO-Ga16-CMKLR1)
T1 sequence (Q99788 1-373): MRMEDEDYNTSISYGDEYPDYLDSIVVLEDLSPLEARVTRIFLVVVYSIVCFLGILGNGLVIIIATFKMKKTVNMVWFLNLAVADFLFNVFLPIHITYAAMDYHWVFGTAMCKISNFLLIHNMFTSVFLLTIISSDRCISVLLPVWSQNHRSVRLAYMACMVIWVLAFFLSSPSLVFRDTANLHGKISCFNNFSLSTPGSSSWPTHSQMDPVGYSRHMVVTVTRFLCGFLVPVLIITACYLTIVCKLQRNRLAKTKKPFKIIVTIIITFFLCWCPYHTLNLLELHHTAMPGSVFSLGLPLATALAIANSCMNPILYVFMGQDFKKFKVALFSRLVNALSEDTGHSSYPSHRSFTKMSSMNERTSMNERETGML
Experiment: Calcium mobilization assay (CHO-Ga16-CMKLR1 cells, chemerin-9 induced signal)
Type: cell-based
Settings: Table 3, IC50 class, calcium signal induced by 2.5 nM chemerin-9
Method: To establish a CMKLR1 calcium mobilization cell evaluation system, CHO-K1 cells expressing Gα-16 were transfected with pcDNA3.1-derived human CMKLR1-expressing plasmids using Lipofectamine 2000 (Invitrogen, Waltham, Massachusetts, USA). […] The established cell line (CHO-Ga16-CMKLR1) was cultured in F-12 medium (Invitrogen) supplemented with 10% (v/v) fetal bovine serum (FBS; Invitrogen), 0.5 mg/mL geneticin, 0.2 mg/mL hygromycin B (Clontech), and 1% (v/v) antibiotic-antimycotic solution (Invitrogen) under 5% CO2 at 37°C.
100 µL/well was added to a 96-well plate (Corning) and incubated for 24 h. The buffer solution was prepared by adding 1 M HEPES solution to Hanks' Balanced Salt Solution (HBSS) (Invitrogen) and adjusting the pH to 7.4 by dropwise addition of 1 M NaOH.
The fluorescent dye solution was prepared using the buffer provided with the Calcium 5 Assay Kit (Molecular Devices). 40 µL/well of dye solution was added to each well and incubated at 37°C in a 5% CO2 atmosphere for 30 min. […] The final DMSO concentration was adjusted to 2%. 40 µL of each compound solution was added to the well and incubated for 30 min. […] Prism 5 software (GraphPad) was then used to obtain IC50 values for various compounds. IC50 values were derived based on concentration-response curves, and all experiments were repeated at least three times.

SMILES | IC50 [nM]
C[C@@H](CC(=O)O)c1ccc(OCc2ccc3c(-c4cc(F)c(O)cc4F)nn(C4CCCC4)c3c2)cc1 [Compound 45, (S)-3-(4-((1-cyclopentyl-3-(2,5-difluoro-4-hydroxyphenyl)-1H-indazol-6-yl)methoxy)phenyl)butanoic acid] | 100 to 1000
C[C@@H](CC(=O)O)c1ccc(OCc2ccc3c(-c4cc(Cl)c(O)cc4Cl)nn(C4CCCC4)c3c2)cc1 [Compound 46, (S)-3-(4-((1-cyclopentyl-3-(2,5-dichloro-4-hydroxyphenyl)-1H-indazol-6-yl)methoxy)phenyl)butanoic acid] | 100 to 1000
C[C@@H](CC(=O)O)c1ccc(OCc2ccc3c(-c4cc(F)c(CO)c(F)c4)nn(C4CCCC4)c3c2)cc1 [Compound 47, (S)-3-(4-((1-cyclopentyl-3-(3,5-difluoro-4-(hydroxymethyl)phenyl)-1H-indazol-6-yl)methoxy)phenyl)butanoic acid] | < 100
C[C@@H](CC(=O)O)c1ccc(OCc2ccc3c(-c4ccc(C(=O)O)cc4)nn(C4CCCC4)c3c2)cc1 [Compound 51, (S)-4-(6-((4-(1-carboxypropan-2-yl)phenoxy)methyl)-1-cyclopentyl-1H-indazol-3-yl)benzoic acid] | 100 to 1000

Same assay, conditions: Table 4, IC50 class, calcium signal induced by 2.5 nM chemerin-9

SMILES | IC50 [nM]
C[C@@H](CC(=O)O)c1ccc(OCc2ccc3c(-c4ccc(C(=O)O)cc4F)nn(C4CCCC4)c3c2)cc1 [Compound 52, (S)-4-(6-((4-(1-carboxypropan-2-yl)phenoxy)methyl)-1-cyclopentyl-1H-indazol-3-yl)-3-fluorobenzoic acid] | 100 to 1000
Cc1cc(-c2nn(C3CCCC3)c3cc(COc4ccc([C@@H](C)CC(=O)O)cc4)ccc23)cc(C)c1O [Compound 53, (S)-3-(4-((1-cyclopentyl-3-(4-hydroxy-3,5-dimethylphenyl)-1H-indazol-6-yl)methoxy)phenyl)butanoic acid] | 100 to 1000
C[C@@H](CC(=O)O)c1ccc(OCc2ccc3c(-c4cccc(CO)c4)nn(C4CCCC4)c3c2)cc1 [Compound 54, (S)-3-(4-((1-cyclopentyl-3-(3-(hydroxymethyl)phenyl)-1H-indazol-6-yl)methoxy)phenyl)butanoic acid] | > 1000
C[C@@H](CC(=O)O)c1ccc(OCc2ccc3c(-c4ccc(O)c(F)c4F)nn(C4CCCC4)c3c2)cc1 [Compound 55, (S)-3-(4-((1-cyclopentyl-3-(2,3-difluoro-4-hydroxyphenyl)-1H-indazol-6-yl)methoxy)phenyl)butanoic acid] | > 1000
COc1ccc(-c2nn(C3CCCC3)c3cc(COc4ccc([C@H](C)CC(=O)O)cc4)ccc23)cc1 [Compound 57, (R)-3-(4-((1-cyclopentyl-3-(4-methoxyphenyl)-1H-indazol-6-yl)methoxy)phenyl)butanoic acid] | > 1000
CC(CC(=O)O)c1ccc(OCc2ccc3c(-c4ccc(N)cc4)nn(C4CCCC4)c3c2)cc1 (centres unmarked) [Compound 59, 3-(4-((3-(4-aminophenyl)-1-cyclopentyl-1H-indazol-6-yl)methoxy)phenyl)butanoic acid] | > 1000
CC(=O)Nc1ccc(-c2nn(C3CCCC3)c3cc(COc4ccc(C(C)CC(=O)O)cc4)ccc23)cc1 (centres unmarked) [Compound 60, 3-(4-((3-(4-acetamidophenyl)-1-cyclopentyl-1H-indazol-6-yl)methoxy)phenyl)butanoic acid] | > 1000
CC(=O)Nc1ccc(-c2nn(C3CCCC3)c3cc(COc4ccc(C(C)CC(=O)O)cc4)ccc23)cc1 (centres unmarked) [Compound 61, 3-(4-((3-(4-acetamidophenyl)-1-cyclopentyl-1H-indazol-6-yl)methoxy)phenyl)butanoic acid] | > 1000
C[C@@H](CC(=O)O)c1ccc(OCc2cc(F)c3c(-c4cc(Cl)c(O)c(Cl)c4)nn(C4CCCC4)c3c2)cc1 [Compound 69, (S)-3-(4-((1-cyclopentyl-3-(3,5-dichloro-4-hydroxyphenyl)-4-fluoro-1H-indazol-6-yl)methoxy)phenyl)butanoic acid] | < 100
CC(CC(=O)O)c1ccc(OCc2cnc3c(-c4ccc(O)cc4)nn(C4CCCC4)c3c2)cc1 (centres unmarked) [Compound 72, 3-(4-((1-cyclopentyl-3-(4-hydroxyphenyl)-1H-pyrazolo[4,3-b]pyridin-6-yl)methoxy)phenyl)butanoic acid] | 100 to 1000
CC(CC(=O)O)c1ccc(OCc2cnc3c(-c4cc(Cl)c(O)c(Cl)c4)nn(C4CCCC4)c3c2)cc1 (centres unmarked) [Compound 73, 3-(4-((1-cyclopentyl-3-(3,5-dichloro-4-hydroxyphenyl)-1H-pyrazolo[4,3-b]pyridin-6-yl)methoxy)phenyl)butanoic acid] | 100 to 1000
CC(CC(=O)O)c1ccc(OCc2cnc3c(-c4cc(F)c(O)c(F)c4)nn(C4CCCC4)c3c2)cc1 (centres unmarked) [Compound 74, 3-(4-((1-cyclopentyl-3-(3,5-difluoro-4-hydroxyphenyl)-1H-pyrazolo[4,3-b]pyridin-6-yl)methoxy)phenyl)butanoic acid] | 100 to 1000
CC(CC(=O)O)c1ccc(OCc2cnc3c(-c4ccc(O)c(Cl)c4)nn(C4CCCC4)c3c2)cc1 (centres unmarked) [Compound 75, 3-(4-((3-(3-chloro-4-hydroxyphenyl)-1-cyclopentyl-1H-pyrazolo[4,3-b]pyridin-6-yl)methoxy)phenyl)butanoic acid] | 100 to 1000

Same assay, conditions: read-out: CMKLR1 activity in CHO cells (% inhibition at 10 µM), 10 µM compound, relative to calcium signal induced by 2.5 nM chemerin-9

SMILES | inhibition at 10 µM [%]
CC(CC(=O)O)c1ccc(OCc2ccc3c(-c4ccccc4)nn(C)c3c2)cc1 (centres unmarked) [Compound 77, 3-(4-((1-methyl-3-phenyl-1H-indazol-6-yl)methoxy)phenyl)butanoic acid] | 24
CCCn1nc(-c2ccccc2)c2ccc(COc3ccc(C(C)CC(=O)O)cc3)cc21 (centres unmarked) [Compound 79, 3-(4-((3-phenyl-1-propyl-1H-indazol-6-yl)methoxy)phenyl)butanoic acid] | 60
CC(C)Cn1nc(-c2ccccc2)c2ccc(COc3ccc(C(C)CC(=O)O)cc3)cc21 (centres unmarked) [Compound 80, 3-(4-((1-isobutyl-3-phenyl-1H-indazol-6-yl)methoxy)phenyl)butanoic acid] | 52
CC(CC(=O)O)c1ccc(OCc2ccc3c(-c4ccccc4)nn(CC4CC4)c3c2)cc1 (centres unmarked) [Compound 81, 3-(4-((1-(cyclopropylmethyl)-3-phenyl-1H-indazol-6-yl)methoxy)phenyl)butanoic acid] | 35
CC(CC(=O)O)c1ccc(OCc2ccc3c(-c4ccccc4)nn(CC4CCCCC4)c3c2)cc1 (centres unmarked) [Compound 83, 3-(4-((1-(cyclohexylmethyl)-3-phenyl-1H-indazol-6-yl)methoxy)phenyl)butanoic acid] | 28
CC(CC(=O)O)c1ccc(OCc2ccc3c(-c4ccccc4)nn(Cc4ccccc4)c3c2)cc1 (centres unmarked) [Compound 85] | 23

— patent EP4775568A1, “NOVEL COMPOUND AND USE THEREOF FOR TREATING PSORIASIS” (Gwangju Institute of Science and Technology, priority 2023, dated 2025)
